In the supplement of paper PMC10331698:
± gives the standard deviation of the averaged measurements.

Assays:
Experiment in all cases: level (log10 ratio to DMSO vehicle control); higher = higher biomarker level / cell amount than vehicle control
[1] = compound: OCC(F)(F)C(F)(F)C(F)(F)C(F)(F)C(F)(F)C(F)(F)C(F)(F)C(F)(F)C(F)(F)C(F)(F)C(F)(F)F [11:1 Fluorotelomer alcohol]; details: in DMSO
Protocol: (§1)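 BioMAP Diversity Plus panel of 12 human primary cell co-culture systems (3C, 4H, LPS, SAg, BT, BF4T, BE3C, CASM3C, HDF3CGF, KF3CT, MyoF, Mphg). Compounds were added 1 h before stimulation and left for 24 h (MyoF 48 h; BT 72 h for soluble read-outs or 6 d for IgG). Biomarkers were read by ELISA, cytotoxicity by SRB, PBMC viability and proliferation by Alamar Blue. Each well value was divided by the mean of 8 DMSO control wells on the same plate and log10 transformed; duplicate blinded samples were tested at 4 concentrations.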

[2] = compound: OCC(F)(F)C(F)(F)C(F)(F)C(F)(F)C(F)(F)C(F)(F)C(F)(F)C(F)(F)CO [1H,1H,10H,10H-Perfluorodecane-1,10-diol]; details: in DMSO
Protocol: as §1

[3] = compound: FC(F)(I)C(F)(F)C(F)(F)C(F)(F)C(F)(F)C(F)(F)I [1,6-Diiodoperfluorohexane]; details: 6700 nM; in DMSO
Protocol: as §1

[4] = compound: O=S(=O)(OCC(F)(F)F)C(F)(F)C(F)(F)C(F)(F)C(F)(F)F [2,2,2-Trifluoroethyl perfluorobutanesulfonate]; details: in DMSO
Protocol: as §1

Perfluoropinacol = compound: OC(C(F)(F)F)(C(F)(F)F)C(O)(C(F)(F)F)C(F)(F)F [Perfluoropinacol]; details: in DMSO
Protocol: as §1

[5] = compound: O=C(O)C(F)(F)C(F)(F)C(F)(F)C(F)(F)C(F)(F)C(F)(F)C(F)(F)F [Ammonium perfluorooctanoate]; details: in DMSO
Protocol: as §1

[6] = compound: Cc1ccc(S(=O)(=O)OCC(F)(F)C(F)(F)C(F)(F)C(F)(F)C(F)(F)C(F)F)cc1 [1H,1H,7H-Perfluoroheptyl 4-methylbenzenesulfonate]; details: in DMSO
Protocol: as §1

| Test System | level (log10) ([1]; 1100 nM) | level (log10) ([1]; 3300 nM) | level (log10) ([1]; 10000 nM) | level (log10) ([2]; 6700 nM) | level (log10) ([2]; 20000 nM) | level (log10) ([2]; 60000 nM) | level (log10) [3] | level (log10) ([4]; 6700 nM) | level (log10) ([4]; 20000 nM) | level (log10) ([4]; 60000 nM) | level (log10) (Perfluoropinacol; 6700 nM) | level (log10) (Perfluoropinacol; 20000 nM) | level (log10) ([5]; 6700 nM) | level (log10) ([5]; 20000 nM) | level (log10) ([5]; 60000 nM) | level (log10) ([6]; 6700 nM) | level (log10) ([6]; 20000 nM) | level (log10) ([6]; 60000 nM) |
| --- | --- | --- | --- | --- | --- | --- | --- | --- | --- | --- | --- | --- | --- | --- | --- | --- | --- | --- |
| 3C:CD106/VCAM-1 | 0.008 ± 0.016 | 0.007 | 0.022 ± 0.0099 | -0.023 ± 0.0071 | -0.0225 ± 0.0021 | -0.052 | -0.043 | -0.0165 ± 0.012 | -0.016 ± 0.0085 | 0.0015 ± 0.0021 | -0.006 ± 0.02 | -0.0385 ± 0.018 | 0.004 ± 0.03 | -0.0025 ± 0.03 | 0.019 ± 0.041 | -0.0205 ± 0.0064 | -0.0085 ± 0.0064 | -0.037 ± 0.025 |
| CASM3C:CD142/Tissue Factor | -0.013 ± 0.02 | -0.0225 ± 0.016 | -0.038 ± 0.02 | -0.0275 ± 0.015 | -0.02 ± 0.0042 | -0.033 | 0.001 | 0.013 ± 0.011 | 0.0485 ± 0.0021 | 0.133 ± 0.052 | -0.0515 ± 0.022 | -0.0235 ± 0.06 | 0.005 ± 0.028 | -0.009 ± 0.025 | -0.01 ± 0.024 | -0.038 ± 0.014 | -0.057 ± 0.047 | -0.0205 ± 0.03 |
| CASM3C:PAI-I | -0.001 ± 0.0071 | -0.0055 ± 0.005 | -0.0005 ± 0.015 | -0.0095 ± 0.0035 | -0.011 ± 0.0042 | -0.01 | 0.011 | -0.0075 ± 0.0092 | 0.0015 ± 0.00071 | 0.0035 ± 0.0021 | -0.006 ± 0.0071 | -0.0075 ± 0.0064 | 0.0005 ± 0.00071 | -0.001 ± 0.0028 | 0.0085 ± 0.0078 | -0.004 ± 0.0028 | -0.007 ± 0.0085 | -0.008 ± 0.016 |
| lMphg:sIL-10 | -0.0255 ± 0.069 | -0.0875 ± 0.066 | -0.216 ± 0.082 | -0.0265 ± 0.06 | -0.357 ± 0.27 | -1.1 | -0.219 | 0.072 ± 0.0042 | 0.0465 ± 0.0035 | -0.171 ± 0.052 | 0.031 ± 0.017 | -0.498 ± 0.24 | -0.0655 ± 0.049 | -0.042 ± 0.021 | -0.16 ± 0.028 | -0.194 ± 0.063 | -0.0825 ± 0.14 | -0.0155 ± 0.091 |
| KF3CT:CD54/ICAM-1 | -0.014 ± 0.0071 | -0.0295 ± 0.0021 | -0.0045 ± 0.012 | -0.002 ± 0.0085 | -0.018 ± 0.0057 | -0.125 | -0.038 | 0.015 ± 0.03 | -0.0055 ± 0.0092 | -0.006 ± 0.013 | 0.012 ± 0.0099 | 0.0185 ± 0.015 | 0.004 ± 0.016 | -0.0165 ± 0.018 | -0.03 ± 0.023 | 0.003 ± 0.0057 | 0.001 ± 0.0042 | 0 ± 0.0042 |
| MyoF:Decorin | 0.0065 ± 0.028 | 0.013 ± 0.021 | 0.0255 ± 0.0021 | 0.004 ± 0.027 | -0.0005 ± 0.042 | 0.007 | 0.021 | 0.0135 ± 0.066 | 0.027 ± 0.014 | 0.008 ± 0.052 | -0.041 ± 0.024 | -0.034 ± 0.025 | 0.0055 ± 0.0035 | 0.0075 ± 0.00071 | -0.0355 ± 0.057 | 0.0065 ± 0.033 | 0.0045 ± 0.025 | 0.073 ± 0.05 |
| MyoF:PAI-I | 0.009 ± 0.0042 | 0.014 ± 0.013 | 0.0205 ± 0.0064 | -0.0155 ± 0.005 | -0.008 ± 0.0042 | -0.005 | -0.053 | -0.0115 ± 0.0092 | -0.011 ± 0.018 | -0.0065 ± 0.018 | -0.0215 ± 0.012 | -0.0025 ± 0.00071 | 0.0095 ± 0.015 | 0.0035 ± 0.013 | 0.027 ± 0.011 | -0.007 ± 0.0085 | -0.0085 ± 0.013 | -0.019 ± 0.013 |
| BE3C:MMP-1 | -0.0275 ± 0.018 | -0.0685 ± 0.015 | -0.077 | 0.054 ± 0.0071 | 0.103 ± 0.042 | 0.137 | 0.014 | 0.01 ± 0.031 | 0.0165 ± 0.00071 | 0.0165 ± 0.00071 | 0.0275 ± 0.0021 | -0.003 ± 0.0057 | 0.034 ± 0.018 | 0.113 ± 0.014 | 0.283 ± 0.041 | 0.044 ± 0.0099 | 0.051 ± 0.038 | 0.094 ± 0.061 |
| 3C:CCL2/MCP-1 | -0.0005 ± 0.0064 | -0.007 ± 0.021 | 0.003 ± 0.04 | -0.0015 ± 0.005 | 0.0055 ± 0.00071 | 0.018 | 0.01 | 0.0095 ± 0.011 | 0.004 ± 0.035 | 0.023 ± 0.057 | 0.092 ± 0.013 | 0.0445 ± 0.012 | -0.002 ± 0.0099 | 0.004 ± 0.025 | 0.0315 ± 0.035 | -0.011 ± 0.0028 | -0.0075 ± 0.0021 | -0.0475 ± 0.011 |
| MyoF:MMP-1 | -0.027 ± 0.0042 | -0.0445 ± 0.0021 | 0.004 ± 0.052 | -0.0415 ± 0.013 | -0.0275 ± 0.012 | 0.284 | 0.469 | 0.018 ± 0.16 | 0.043 ± 0.16 | 0.0695 ± 0.12 | -0.0075 ± 0.012 | -0.027 ± 0.0042 | -0.029 ± 0.016 | -0.0145 ± 0.019 | 0.0415 ± 0.013 | -0.0115 ± 0.0035 | 0.0185 ± 0.016 | 0.048 ± 0.014 |
| BE3C:MMP-9 | -0.0475 ± 0.029 | -0.102 ± 0.0042 | -0.0735 ± 0.019 | 0 ± 0.0071 | -0.041 ± 0.0042 | -0.14 | -0.008 | -0.0355 ± 0.021 | -0.041 ± 0.033 | -0.061 ± 0.028 | -0.011 ± 0.0014 | -0.04 ± 0.0028 | -0.0145 ± 0.0064 | 0.047 ± 0.0042 | 0.0375 ± 0.021 | 0.012 ± 0.027 | -0.0165 ± 0.021 | -0.003 ± 0.035 |
| HDF3CGF:Proliferation 72hr | -0.015 ± 0.065 | 0 ± 0.0099 | 0.021 ± 0.02 | -0.0305 ± 0.046 | -0.112 ± 0.05 | -1.01 | -0.919 | -0.046 | -0.0425 ± 0.029 | -0.1 ± 0.047 | -0.183 ± 0.044 | -0.39 ± 0.05 | 0.058 ± 0.065 | 0.124 ± 0.018 | 0.119 ± 0.021 | -0.031 ± 0.011 | 0.0195 ± 0.036 | -0.197 ± 0.11 |
| KF3CT:CCL2/MCP-1 | 0.0265 ± 0.013 | 0.0205 ± 0.00071 | 0.0305 ± 0.00071 | -0.028 ± 0.021 | -0.024 ± 0.016 | -0.272 | -0.251 | -0.018 ± 0.057 | -0.0485 ± 0.044 | -0.022 ± 0.014 | 0.0955 ± 0.013 | 0.211 ± 0.024 | 0.011 ± 0.024 | -0.0245 ± 0.036 | -0.119 ± 0.0064 | 0.0035 ± 0.028 | -0.077 ± 0.025 | -0.009 ± 0.048 |
| CASM3C:SRB | 0.0075 ± 0.005 | 0.0095 ± 0.0064 | 0.008 ± 0.0071 | 0.0015 ± 0.0021 | -0.002 ± 0.0099 | -0.067 | 0.002 | -0.006 | -0.005 ± 0.0028 | -0.0055 ± 0.0064 | -0.02 ± 0.0099 | -0.061 ± 0.0057 | -0.0015 ± 0.00071 | -0.001 ± 0.0099 | -0.0005 ± 0.00071 | 0.002 ± 0.0014 | -0.0055 ± 0.0078 | -0.0125 ± 0.0035 |
| MyoF:CD106/VCAM-1 | -0.0055 ± 0.037 | -0.0075 ± 0.022 | -0.0025 ± 0.00071 | 0.0025 ± 0.021 | -0.0025 ± 0.025 | -0.19 | -0.373 | -0.01 ± 0.011 | 0.026 ± 0.014 | -0.0075 ± 0.0021 | -0.013 ± 0.011 | -0.042 ± 0.0085 | -0.011 ± 0.016 | -0.017 ± 0.0085 | -0.017 ± 0.0057 | 0.004 ± 0.0014 | 0.023 ± 0.0014 | 0.0135 ± 0.0021 |
| lMphg:SRB-Mphg | -0.039 ± 0.0014 | -0.105 ± 0.0085 | -0.205 ± 0.0085 | 0.003 ± 0.028 | -0.0625 ± 0.084 | -0.775 | -0.023 | -0.005 ± 0.0071 | -0.019 ± 0.014 | -0.024 ± 0.031 | -0.015 ± 0.0099 | -0.05 ± 0.0028 | -0.0045 ± 0.0092 | 0.006 ± 0.0057 | -0.007 ± 0.02 | 0.033 ± 0.0028 | -0.013 ± 0.03 | 0.0155 ± 0.036 |
